In patent publication US20220324835A1 (Nurix Therapeutics, Inc., priority 2018, published 2022):

Tests used:
[1] = target: T1, Cbl-b (Homo sapiens, UniProt Q13191); assay: Cbl-b inhibition assay (Cbl-b activity assay, FRET, Biological Example 1; 100 mM NaCl, 60 nM Src kinase); assay type: biochemical; conditions: upper bound stated in text lists; read-out: IC50 values in the Cbl-b inhibition assay of Biological Example 1
Description: FIG. 1A and FIG. 1B show a series of diagrams depicting the activity assay utilized to assay inhibition of Cbl-b activity by a Cbl-b inhibitor. FIG. 1A: The activity assay mixture comprises an N-terminal biotinylated Avi-tagged Cbl-b, an E2 enzyme (i.e., UbcH5B) irreversibly conjugated to Bodipy-Fluorescein tagged ubiquitin (i.e., UbcH5B-Ub), a Src kinase, streptavidin-terbium, and assay buffer. Phosphorylation of Cbl-b by the Src kinase allows UbcH5B-Ub to bind to Cbl-b and bring the Bodipy-Fluorescein tagged ubiquitin in proximity to the streptavidin-terbium bound to the N-terminal biotinylated Avi-tagged Cbl-b. […] FIG. 1B: In the presence of a Cbl-b inhibitor, such as one described herein, Cbl-b is unable to bind UbcH5B-Ub. The lack of a FRET signal indicates Cbl-b is inhibited by the Cbl-b inhibitor. Ub indicates ubiquitin; N-Avi indicates biotinylated Avi-tag at the N-terminus of Cbl-b; inhibitor indicates Cbl-b inhibitor.
The lack of a FRET signal indicates Cbl-b is inhibited by the Cbl-b inhibitor. In FIG. 1A and FIG. 1B, Ub indicates ubiquitin; N-Avi indicates biotinylated Avi-tag at the N-terminus of Cbl-b; and inhibitor indicates Cbl-b inhibitor.

[2] = target: T1, Cbl-b; assay: Cbl-b activity assay (Cbl-b inhibition assay), TR-FRET of Cbl-b interaction with UbcH5B-Ub; assay type: biochemical; conditions: assay buffer with 100 mM NaCl, 60 nM Src kinase; read-out: Cbl-b activity IC50
Protocol: The ability of candidate compounds to inhibit Cbl-b activity was measured by monitoring the interaction of Cbl-b with UbcH5B-Ub in the presence of the candidate compound.
Fluorescently labeled UbcH5B-Ub was prepared by conjugating ubiquitin (Ub), labeled at its N-terminus with Bodipy-Fluorescein, to UbcH5B, an E2 enzyme, harboring a cysteine to lysine mutation at position 85. […] After incubation in the presence of the candidate compound, the plate was incubated for an additional 1.5 hours in the presence of 60 nM Src kinase with 1 mM ATP and 5 mM MgCl2 (final concentrations). […] The plate was incubated for 1 hour.
Column marked with an asterisk (*) were tested as described above with assay buffer containing 50 mM NaCl instead of 100 mM NaCl and 30 nM Src kinase instead of 60 nM Src kinase. The resulting data for the Cbl-b binding assay was solvent corrected and double referenced prior to analysis. All data were globally fit to a steady-state affinity and kinetic binding model where applicable). Fit parameters were derived from a 1:1 binding model using the Biacore T200 Evaluation Software V2.0 (GE Healthcare) (Table 2).

T1 sequence (Q13191 36-427): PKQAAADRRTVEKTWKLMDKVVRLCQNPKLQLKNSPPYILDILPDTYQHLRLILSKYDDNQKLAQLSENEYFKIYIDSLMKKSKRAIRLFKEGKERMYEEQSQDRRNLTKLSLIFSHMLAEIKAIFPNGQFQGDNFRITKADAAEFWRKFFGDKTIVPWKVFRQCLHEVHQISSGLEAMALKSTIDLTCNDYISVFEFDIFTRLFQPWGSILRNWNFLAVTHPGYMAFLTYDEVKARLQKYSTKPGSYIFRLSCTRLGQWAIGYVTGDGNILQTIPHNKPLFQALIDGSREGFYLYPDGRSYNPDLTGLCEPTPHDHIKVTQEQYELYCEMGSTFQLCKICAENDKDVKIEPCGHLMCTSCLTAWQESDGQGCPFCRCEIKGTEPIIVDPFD

| Structure (SMILES) | IC50 [1] [nM] | IC50 [2] [nM] |
| --- | --- | --- |
| Cn1cnnc1C[C@H](c1cccc(N2Cc3c(cccc3C(F)(F)F)C2=O)c1)C(F)F [Example 617, (R)-2-(3-(1,1-difluoro-3-(4-methyl-4H-1,2,4-triazol-3-yl)propan-2-yl)phenyl)-4-(trifluoromethyl)isoindolin-1-one] | ≤ 300 | 100 to 300 |
| CC(c1cc(C(=O)Nc2cccc(C3(Cc4nncn4C)COC3)c2)nc(C2CC2)n1)N1CCC2(CC2)C1 (stereo in doubt) [Example 592b, (S)-6-(1-(5-azaspiro[2.4]heptan-5-yl)ethyl)-2-cyclopropyl-N-(3-(3-((4-methyl-4H-1,2,4-triazol-3-yl)methyl)oxetan-3-yl)phenyl)pyrimidine-4-carboxamide] | ≤ 100 | < 100 |
| Cn1cnnc1CC1(c2cccc(N3Cc4c(cc(CN5CCOC(C6CCC6)C5)cc4C(F)(F)F)C3=O)c2)COC1 (stereo not shown) [Example 719, 6-[(2-cyclobutylmorpholin-4-yl)methyl]-2-(3-{3-[(4-methyl-1,2,4-triazol-3-yl)methyl]oxetan-3-yl}phenyl)-4-(trifluoromethyl)-3H-isoindol-1-one] | ≤ 100 | < 100 |
| Cn1cnnc1CC1(c2cccc(N3Cc4c(cc(CN5CCOC6(CCOC6)C5)cc4C(F)(F)F)C3=O)c2)COC1 (stereo not shown) [Example 712, 6-((2,6-dioxa-9-azaspiro[4.5]decan-9-yl)methyl)-2-(3-(3-((4-methyl-4H-1,2,4-triazol-3-yl)methyl)oxetan-3-yl)phenyl)-4-(trifluoromethyl)isoindolin-1-one] | ≤ 100 | < 100 |
| C[C@H](Sc1nncn1C)c1ccnc(NC(=O)c2ccc(Cl)c(C(F)(F)F)n2)c1 [Compound 106, (S)-5-chloro-N-(4-(1-((4-methyl-4H-1,2,4-triazol-3-yl)thio)ethyl)pyridin-2-yl)-6-(trifluoromethyl)picolinamide] | ≤ 10000 | 1000 to 3000 |
| CN1CC[C@@H](O)[C@H](Cc2cc3c(c(C(F)(F)F)c2)CN(c2cccc(C4(Cc5nncn5C)COC4)c2)C3=O)C1 (single isomer, unassigned) [Compound 533] | ≤ 100 | < 100 |
| C[C@H](Sc1nncn1C)c1ccnc(NC(=O)c2csc(C(F)(F)F)n2)c1 [Compound 118, N-[4-[(1S)-1-[(4-methyl-1,2,4-triazol-3-yl)sulfanyl]ethyl]-2-pyridyl]-2-(trifluoromethyl)thiazole-4-carboxamide] | ≤ 10000 | 1000 to 3000 |
| C[C@H](Sc1nncn1C)c1cccc(NC(=O)c2cccc(N)c2)c1 [Compound 58, (S)-3-amino-N-(3-(1-((4-methyl-4H-1,2,4-triazol-3-yl)thio)ethyl)phenyl)benzamide] | ≤ 10000 | 3000 to 10000 |
| Cc1conc1C[C@H](C)c1cccc(NC(=O)c2ccnc(C(F)(F)F)n2)c1 [Compound 213b, (S)-N-(3-(1-(4-methylisoxazol-3-yl)propan-2-yl)phenyl)-2-(trifluoromethyl)pyrimidine-4-carboxamide] | ≤ 10000 | 3000 to 10000 |
| Cn1cnnc1CC1(c2cccc(N3Cc4c(cc(CN5CCOC6(CC6)C5)cc4C(F)(F)F)C3=O)c2)COC1 [Example 666, 6-((4-oxa-7-azaspiro[2.5]octan-7-yl)methyl)-2-(3-(3-((4-methyl-4H-1,2,4-triazol-3-yl)methyl)oxetan-3-yl)phenyl)-4-(trifluoromethyl)isoindolin-1-one] | ≤ 100 | < 100 |
| Cn1cnnc1CC1(c2cccc(N3Cc4c(cc(CN5CCC(F)(F)C(O)C5)cc4C(F)(F)F)C3=O)c2)COC1 (stereo not shown) [Example 647, 6-((4,4-difluoro-3-hydroxypiperidin-1-yl)methyl)-2-(3-(3-((4-methyl-4H-1,2,4-triazol-3-yl)methyl)oxetan-3-yl)phenyl)-4-(trifluoromethyl)isoindolin-1-one] | ≤ 100 | < 100 |
| Cn1cnnc1CC1(c2cccc(N3Cc4c(cc(CN5CC[C@@H](c6ccccc6)C5)cc4C(F)(F)F)C3=O)c2)COC1 [Example 662b, (S)-2-(3-(3-((4-methyl-4H-1,2,4-triazol-3-yl)methyl)oxetan-3-yl)phenyl)-6-((3-phenylpyrrolidin-1-yl)methyl)-4-(trifluoromethyl)isoindolin-1-one] | ≤ 100 | < 100 |
| Cn1cnnc1CC1(c2cccc(N3Cc4c(cc(CN5CC[C@H](F)[C@@H](F)C5)cc4C(F)(F)F)C3=O)c2)COC1 [Example 626a, 6-(((3S,4S)-3,4-difluoropiperidin-1-yl)methyl)-2-(3-(3-((4-methyl-4H-1,2,4-triazol-3-yl)methyl)oxetan-3-yl)phenyl)-4-(trifluoromethyl)isoindolin-1-one] | ≤ 100 | < 100 |
| C[C@H](Sc1nncn1C)c1ccnc(NC(=O)c2noc3ccccc23)c1 [Compound 115, (S)-N-(4-(1-((4-methyl-4H-1,2,4-triazol-3-yl)thio)ethyl)pyridin-2-yl)benzo[d]isoxazole-3-carboxamide] | ≤ 10000 | 3000 to 10000 |
| C[C@H](Cc1nncn1C)c1cc(C2=CCOCC2)nc(N2Cc3c(cccc3C(F)(F)F)C2=O)c1 [Example 685, (R)-2-(6-(3,6-dihydro-2H-pyran-4-yl)-4-(1-(4-methyl-4H-1,2,4-triazol-3-yl)propan-2-yl)pyridin-2-yl)-4-(trifluoromethyl)isoindolin-1-one] | ≤ 1000 | 301 to 1000 |
| Cn1cnnc1CC1(c2cccc(N3Cc4c(cc(CN5CCN6C(=O)CCC6C5)cc4C(F)(F)F)C3=O)c2)COC1 (stereo not shown) [Example 711, 2-((2-(3-(3-((4-methyl-4H-1,2,4-triazol-3-yl)methyl)oxetan-3-yl)phenyl)-3-oxo-7-(trifluoromethyl)isoindolin-5-yl)methyl)hexahydropyrrolo[1,2-a]pyrazin-6(2H)-one] | ≤ 100 | < 100 |
| Cn1cnnc1CC1(c2cccc(N3Cc4c(cc(CN5CCc6cccnc6C5)cc4C(F)(F)F)C3=O)c2)COC1 [Example 645, 6-((5,8-dihydro-1,7-naphthyridin-7(6H)-yl)methyl)-2-(3-(3-((4-methyl-4H-1,2,4-triazol-3-yl)methyl)oxetan-3-yl)phenyl)-4-(trifluoromethyl)isoindolin-1-one] | ≤ 100 | < 100 |
| Cn1cnnc1CC1(c2cccc(N3Cc4c(cc(CN5CCO[C@H](C(F)(F)F)C5)cc4C(F)(F)F)C3=O)c2)COC1 [Example 707, (S)-2-(3-(3-((4-methyl-4H-1,2,4-triazol-3-yl)methyl)oxetan-3-yl)phenyl)-4-(trifluoromethyl)-6-((2-(trifluoromethyl)morpholino)methyl)isoindolin-1-one] | ≤ 100 | < 100 |
| Cn1cnnc1CC1(c2cccc(N3Cc4c(cc(CN5CCc6cc(C#N)ccc6C5)cc4C(F)(F)F)C3=O)c2)COC1 [Example 706, 2-((2-(3-(3-((4-methyl-4H-1,2,4-triazol-3-yl)methyl)oxetan-3-yl)phenyl)-3-oxo-7-(trifluoromethyl)isoindolin-5-yl)methyl)-1,2,3,4-tetrahydroisoquinoline-6-carbonitrile] | ≤ 100 | < 100 |
| CC(Sc1nncn1C)c1cc(NC(=O)c2ccc3ccccc3n2)c2c(c1)C(C)(O)CC2 (stereo not shown) [Compound 131, N-(1-hydroxy-1-methyl-6-(1-(4-methyl-4H-1,2,4-triazol-3-ylthio)ethyl)-2,3-dihydro-1H-inden-4-yl)quinoline-2-carboxamide] | ≤ 10000 | 3000 to 10000 |
